Assay results from patent US20180094051A1, “METHOD FOR INHIBITING LYMPHANGIOGENESIS BY ADMINISTRATION OF AN INHIBITOR OF THE CXCL12 PATHWAY” (Tsinghua University, priority 2012, published 2018).
“Also recorded” adds a separate entry of the source.

How the values were obtained:
[1] = system: mouse lymphatic endothelial cells; assay: Cell chemotaxis assay (Transwell); type: cell-based; conditions: antibodies 5 μg/mL, AMD3100 25 μg/mL, 6 hours; for effect on migration of mouse lymphatic endothelial cells induced by CXCL12: CXCL12 100 ng/mL, LY294002 and U0126 10 μM, pretreated 30 minutes
Protocol: The migration ability of mouse lymphatic endothelial cells was assessed using 8-μm-pore Transwell bucket (filter membrane) (purchased from Costar). The transwell bucket was placed into a 24-well plate. Mouse primary lymphatic endothelial cells (mLECs) at passage 2 or 3 in good conditions were selected, and divided into five groups, four parallel samples for each group and approximately 2×10^4 cells for each parallel sample. The cells were digested with trypsin, resuspended in 200 μL of fresh serum-free endothelial cell culture medium (ECM, purchased from Sciencell), and then seeded into the inner chambers of the Transwell bucket. To each outer chamber was added 800 μL of serum-free endothelial cell culture medium mixed with 1 ng/mL, 20 ng/mL, 100 ng/mL of chemokine CXCL12 (purchased from R&D Systems), 100 ng/mL of VEGF-C (purchased from R&D Systems) and PBS control, respectively. The culture plate was placed into an incubator and incubated under 5% CO2 at 37° C. for 6 hours.
After taking out the culture plate, the Transwell bucket was fixed in 4% paraformaldehyde solution for 15 minutes. The Transwell bucket was rinsed twice in PBS, stained with 0.1% crystal violet solution for 30 minutes, and then washed with PBS to remove the non-specifically bound crystal violet. The cells inside Transwell membrane were wiped off gently with medical cotton swabs. Note that the cells on the edge of the membrane should also be wiped off to avoid affecting cell counting. The Transwell bucket was placed under a microscope (Olympus IX71 microscope), and the cells migrated from the outer membrane were observed by microscopy. 8 fields per group were photographed randomly to count the cells.
The migration ability of mouse lymphatic endothelial cells was assessed using 8-μm-pore Transwell bucket (purchased from Costar). The bucket was placed into a 24-well plate. Mouse primary lymphatic endothelial cells (mLECs) at passage 2 or 3 in good conditions were selected, and divided into six groups, four parallel samples for each group, and approximately 2×10^4 cells for each parallel sample. The cells were digested with trypsin and resuspended in 200 μL, of fresh serum-free endothelial cell culture medium (ECM, purchased from Sciencell). The cells were pretreated for 30 minutes with dimethyl sulfoxide (DMSO) as a control, protein kinase B (Akt) antagonist LY294002 (10 μM, purchased from Sigma-Aldrich) and extracellular signal-regulated kinase (Erk) antagonist U0126 (10 μM, purchased from Sigma-Aldrich), respectively, and then seeded into the inner chambers of the Transwell bucket. […] The cells were stained and the number of the migrated cells was counted.
The migration ability of mouse lymphatic endothelial cells was detected by using 8-μm-pore Transwell bucket (purchased from Costar). […]

[2] = system: newly formed lymphatic vessels; assay: In vivo Matrigel plug assay (lymphangiogenesis); parameters: species or system BALB/c mice; conditions: CXCL12 500 ng/mL; antibodies 10 μg/mL, AMD3100 50 μg/mL; 8 days
Protocol: Matrigel plug assay was conducted as previously reported^[44]. BALB/C mice (5 weeks old, female, purchased from Vital River Laboratories, Beijing) were divided into five groups, five mice each group. Growth factor-free Matrigel (9-10 mg/mL, purchased from Becton-Dickinson Biosciences) containing 20 ng/mL, 100 ng/mL, 500 ng/mL of chemokine CXCL12 (purchased from R&D Systems), 500 ng/mL of VEGF-C (purchased from R&D Systems), and PBS control, respectively, was injected subcutaneously into the BALB/c mice along the abdominal midline. The Matrigel formed a solid plug in the mice, and the agent was slowly released from the Matrigel to stimulate new mouse lymphatic vessels to be formed and grown into the Matrigel. 8 days later, the Matrigel was removed carefully.
After being washed in PBS, the Matrigel were fixed in 30% sucrose solution at 4° C. overnight. Frozen sections in a thickness of about 10 μm were prepared and stored at −20° C. The frozen sections were blocked with a blocking solution in a humidified chamber at room temperature for 1 hour. The blocking solution was PBS containing 10% normal goat serum. […]
The newly formed lymphatic vessels in the Matrigel were detected by immunofluorescence, and observed and imaged under a laser confocal microscope (Nikon A1) using the imaging and statistic software NIS-Elements AR 3.0. […]

chemokine receptor CXCR4 = assay: Immunoblotting of CXCR4 in lymphatic endothelial cells (incl. HIF-1α RNA interference); type: cell-based; conditions: mouse lymphatic endothelial cells, 100 ng/mL VEGF-C, 6, 12 and 24 hours
Protocol: Mouse primary lymphatic endothelial cells at passage 2 or 3 in good condition were selected, and starved overnight by replacing the culture medium with a fresh medium free of serum and growth factors. Then the medium was replaced with a medium containing 100 ng/mL of VEGF-C. The cells were incubated for 6, 12 and 24 hours, respectively, and then trypsinized and collected by centrifugation for detecting the expression level of chemokine receptor CXCR4 in the cells by immunoblotting.
The samples were subjected to SDS-PAGE (the concentration of separation gel was 15%). Protein bands were transferred to polyvinylidene difluoride (PVDF) membrane (purchased from Millipore) at 100 mA for 3 hours using an electroblotting device in ice bath. TBST buffer (20 mM Tris, pH7.4, 150 mM NaCl, 0.1% Tween-20) was formulated for preparing blocking solution, primary antibody solution and secondary antibody solution. The PVDF membrane was further incubated in blocking solution containing 5% skim milk for 1 hour at room temperature with gentle shaking. The membrane was then washed with TBST for 5 times, 5 minutes each. […]
The siRNA for interfering with the chemical synthesis of HIF-1α was purchased from Santa Cruz Biotechnology, and the negative control siRNA was purchased from GenePharma, Shanghai. […] HIF-1α knock-down efficiency was detected by immunoblotting. […]

| Molecule | effect on migration of mouse lymphatic endothelial cells induced by CXCL12 [1] | effect on activity of VEGF-C (migration of mouse lymphatic endothelial cells) ([1]; VEGF-C 100 ng/mL) | effect on lymphangiogenesis induced by CXCL12 in Matrigel plug [2] | expression level of CXCR4 (chemokine receptor CXCR4) |
| --- | --- | --- | --- | --- |
| c1cc(CN2CCCNCCNCCCNCC2)ccc1CN1CCCNCCNCCCNCC1 [AMD3100] | could inhibit the migration of mouse lymphatic endothelial cells induced by CXCL12; also recorded: activity of chemokine CXCL12 was inhibited | had no effect on the activity of growth factor VEGF-C; also recorded: the activity of VEGF-C was not affected | could significantly reduce the activity of chemokine CXCL12 | – |
| N#CC(=C(/N)Sc1ccccc1N)/C(C#N)=C(\N)Sc1ccccc1N [U0126] | inhibited the lymphatic endothelial cell migration induced by chemokine CXCL12 | – | – | – |
| CXCR4: Printed in b110 as the treating agent; apparently a misprint for VEGF-C (protein) MEPISVSIYTSDNYSEEVGSGDYDSNKEPCFRDENVHFNRIFLPTIYFIIFLTGIVGNGLVILVMGYQKKLRSMTDKYRLHLSVADLLFVITLPFWAVDAMADWYFGKFLCKAVHIIYTVNLYSSVLILAFISLDRYLAIVHATNSQRPRKLLAEKAVYVGVWIPALLLTIPDFIFADVSQGDISQGDDRYICDRLYPDSLWMVVFQFQHIMVGLILPGIVILSCYCIIISKLSHSKGHQKRKALKTTVILILAFFACWLPYYVGISIDSFILLGVIKQGCDFESIVHKWISITEALAFFHCCLNPILYAFLGAKFKSSAQHALNSMSRGSSLKILSKGKRGGHSSVSTESESSSFHSS | – | – | – | could upregulate the expression level of CXCR4 |
